From patent US9943525B2, “Composition for reducing cell senescence comprising Rho-kinase inhibitor and use thereof” (Samsung Electronics Co., Ltd., priority 2014, dated 2018)

Experiments:
[1] = system: senescent progeric fibroblasts (cell passage 17); experiment: mitochondrial ROS (MitoSOX) by flow cytometry; type: cell-based, human; details: vs control, p<0.05, FIG. 19
Description: (§1) Progeric fibroblasts (Hutchinson-Gilford Progeria Syndrome Skin Fibroblasts, Coriell Cell Repositories, AG03198 B) were cultured in Dulbecco's Modified Eagle's Media (DMEM) supplemented with 10% fetal bovine serpm (FBS) and 100 unit/ml of penicillin, and 100 μg/ml of streptomycin (two antibiotics are purchased from Gibro-BRL and Grand Island, N.Y.) in a 5% CO2 incubator at 37° C. Subculturing was initiated when the cells were approximately 85% confluent in plates. Early subcultures were performed at a split ratio of 1:4, and later subcultures were performed at a split ratio of 1:2. When cell doubling time was 14 days, the cells were regarded as senescent progeric fibroblasts (cell passages 16 to 17).
(§2) The senescent progeric fibroblasts (cell passage 17) were seeded on each well of a 6-well plate in a concentration of 2,000 cells/well and cultured in the presence of 5 μM of Y-27632, 5 μM of FASUDIL, and 0.5 μM of SR3677 for 4 weeks in a 5% CO2 incubator at 37° C. The culture media were changed at every 4 days with new culture media supplemented with 5 μM of Y-27632, 5 μM of FASUDIL, and 0.5 μM of SR3677. A negative control group was prepared in the same manner, except that 0.05 (v/v) % of DMSO was used.
In addition, damage of mitochondria was identified by measuring reactive oxygen species (ROS) and mitochondrial membrane potentials which are well known in the art. ROS were measured using a 0.2 μM MitoSOX (Invitrogen, M3608) according to manufacturer's manuals. Light having a wavelength of 520 nm was irradiated to the cells using a FACSCaliber (Beckton Dickinson), and light emission was measured at 580 nm. The results were analyzed using Cell Quest 3.2 software (Beckton Dickinson). FIG. 19 is a graph displaying reactive oxygen species of progeric fibroblasts (cell passage 17) cultured in the presence of Rho-kinase inhibitors Y-27632 (5 μM), Fasudil (5 μM), and SR3677 (0.5 μM). […] In FIG. 19, * indicates statistically significant (p<0.05).

[2] = system: senescent myoblasts (11 cell passages); experiment: lipofuscin autofluorescence by flow cytometry; type: cell-based, Human; details: 4 weeks, vs control, p<0.05, FIG. 14
Description: Myoblast cell lines (Human Skeletal Muscle Myoblasts, Lonza CC-2580 LOT:0000387550) were cultured in SkBM™-2 Basal Media (Lonza CC-3246) including an SkGM™-2 SingleQuots™ Kit (Lonza CC-3244) on plates coated with Collagen Type I (Greiner Bio One, 658950) in a 5% CO2 incubator at 37° C. Subculture was initiated when the cells were approximately 85% confluent in plates. Early subcultures were performed at a split ratio of 1:4, and later subcultures were performed at a split ratio of 1:2. When cell doubling time was 14 days, the cells were regarded as senescent myoblasts (cell passages 10 to 12).
(§3) In addition, amounts of lipofuscin accumulated in the cultured cells were measured. Senescent myoblasts (11 cell passages) were cultured in the presence of 5 μM of Y-27632, 5 μM of FASUDIL, and 0.5 μM of SR3677 for 4 weeks in a 5% CO2 incubator at 37° C. The culture media were changed at every 4 days with new culture media supplemented with 5 μM of Y-27632, 5 μM of FASUDIL, and 0.5 μM of SR3677. Since lipofuscin has autofluorescence characteristics, light having a wavelength of 488 nm was irradiated to the cells by using a FACSCaliber (Beckton Dickinson) and light emission at 520 nm was measured. The results were analyzed using Cell Quest 3.2 software (Beckton Dickinson). FIG. 14 is a graph displaying amounts of lipofuscin in myoblasts (11 cell passages) cultured in the presence of Rho-kinase inhibitors Y-27632 (5 μM), Fasudil (5 μM), and SR3677 (0.5 μM). […] In FIG. 14, * indicates statistically significant (p<0.05).

[3] = system: senescent progeric fibroblasts (passage 17); experiment: lipofuscin autofluorescence by flow cytometry; type: cell-based, human; details: 4 weeks, vs control, p<0.05, FIG. 18
Description: as §1
as §3, with “addition, the” for “addition,”, “progeric fibroblasts (passage 17)” for “myoblasts (11 cell passages)”, “18” for “14”, “18,” for “14,”

[4] = system: senescent progeric fibroblasts (cell passage 17); experiment: microscopic observation of cell number and shape; type: cell-based, human; details: 4 weeks, FIG. 17; for numbers of cells: vs DMSO
Description: as §1, §2
FIG. 17 illustrates microscopic images of cells cultured in the presence of 5 μM of Y-27632, 5 μM of FASUDIL, and 0.5 μM of SR3677. In “a” of FIG. 17, a portion was selected, marked by a rectangle with a dashed line, and enlarged in a1 for closer examination of the cultured cells. In a1 of FIG. 17, a portion of a1 was selected, marked by a rectangle with a dashed line, and enlarged in a2 for much closer examination of the cultured cells (Scale bar 20 um).

SMILES	ROS ([1]; 5 μM)	amounts of lipofuscin ([2]; 5 μM)	amounts of lipofuscin ([3]; 5 μM)	cell shape ([4]; 5 μM)	numbers of cells ([4]; 5 μM)	ROS ([1]; 0.5 μM)	amounts of lipofuscin ([2]; 0.5 μM)	amounts of lipofuscin ([3]; 0.5 μM)	cell shape ([4]; 0.5 μM)	numbers of cells ([4]; 0.5 μM)
O=S(=O)(c1cccc2cnccc12)N1CCCNCC1 [FASUDIL, 5-(1,4-diazepane-1-sulfonyl)isoquinoline]	significantly reduced	significantly reduced	significantly reduced	spindle shape generally found in young cells	greater than that of the control group					
CN(C)CCOc1cc(-c2cn[nH]c2)ccc1NC(=O)C1COc2ccccc2O1 (stereo not drawn) [SR3677]						significantly reduced	significantly reduced	significantly reduced	spindle shape generally found in young cells	greater than that of the control group
C[C@@H](N)[C@H]1CC[C@H](C(=O)Nc2ccncc2)CC1 [Y-27632, (1R,4R)-4-((R)-1-aminoethyl)-N-(pyridin-4-yl)cyclohexanecarboxamide]	significantly reduced	significantly reduced	significantly reduced	spindle shape generally found in young cells	greater than that of the control group					
